This note sets out measurements from patent US20230122344A1, “ANTAGONISTS OF THE MUSCARINIC ACETYLCHOLINE RECEPTOR M4” (Vanderbilt University, priority 2019, published 2023).

The test addresses T1, Human M4 (Homo sapiens, UniProt P08173).
T1 construct: expressed in transfected cells; host or cells: CHO-K1 (ATCC), co-transfected with chimeric G protein Gqi5
T1 sequence (P08173 1-479): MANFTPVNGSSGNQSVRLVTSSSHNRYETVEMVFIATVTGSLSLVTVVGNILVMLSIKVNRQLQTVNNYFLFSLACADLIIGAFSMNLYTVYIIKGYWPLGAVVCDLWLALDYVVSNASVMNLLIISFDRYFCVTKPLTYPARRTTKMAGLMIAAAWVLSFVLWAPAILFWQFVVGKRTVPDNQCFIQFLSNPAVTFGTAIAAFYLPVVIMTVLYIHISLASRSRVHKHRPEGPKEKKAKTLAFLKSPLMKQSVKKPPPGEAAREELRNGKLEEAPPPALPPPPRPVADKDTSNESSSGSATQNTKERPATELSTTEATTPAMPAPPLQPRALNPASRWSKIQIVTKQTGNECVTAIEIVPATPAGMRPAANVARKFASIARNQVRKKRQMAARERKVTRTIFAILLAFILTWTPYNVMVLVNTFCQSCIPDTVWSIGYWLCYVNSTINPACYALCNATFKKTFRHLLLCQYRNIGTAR
Description: mAChR M4 cell-based functional assay (calcium flux, antagonism of EC80 acetylcholine response). As to conditions: M4/Gqi5/CHO-K1 cells; for remaining activity at 30 µM: CHO-K1, % ACh maximum at 30 μM, read-out: Human M4 Emin; for IC50: decrease of response elicited by EC80 acetylcholine. Put shortly:
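CHO-K1 cells stably expressing human or rat M4 with Gqi5, Fluo-4 loaded; calcium measured by fluorescence ratio on FDSS. Compound added, then EC20 acetylcholine at 143 s and EC80 at 268 s; IC50 from decrease of EC80 response, four-parameter logistic fit.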

Take `[2H]C([2H])(C1CCOCC1)N1C[C@H]2C[C@H](Nc3nnc(-c4cccc(F)c4)cc3C)C[C@H]2C1` [compound 21, (3aR,5s,6aS)-N-(6-(3-fluorophenyl)-4-methylpyridazin-3-yl)-2-((tetrahydro-2H-pyran-4-yl)methyl-d2)octahydrocyclopenta[c]pyrrol-5-amine]: the remaining activity at 30 µM worked out at 3% and the IC50 was determined as 1.22 nM.
Taken in the same sequence, the figures for `[2H]C([2H])(C1CCOCC1)N1C[C@H]2C[C@H](Nc3nnc(-c4cc(F)cc(F)c4F)cc3C(C)(F)F)C[C@H]2C1` [compound 45, (3aR,5s,6aS)-N-(4-(1,1-difluoroethyl)-6-(2,3,5-trifluorophenyl)pyridazin-3-yl)-2-((tetrahydro-2H-pyran-4-yl)methyl-d2)octahydrocyclopenta[c]pyrrol-5-amine] were 3% and 54.4 nM.
Consider `[2H]C([2H])(C1CCOCC1)N1C[C@H]2C[C@H](Nc3nnc(-c4ccccc4)cc3C)C[C@H]2C1` [compound 24, (3aR,5s,6aS)-N-(4-methyl-6-phenylpyridazin-3-yl)-2-((tetrahydro-2H-pyran-4-yl)methyl-d2)octahydrocyclopenta[c]pyrrol-5-amine], for which the remaining activity at 30 µM amounted to 4% and the IC50 is 1.63 nM.
With `Cc1ccc(F)cc1-c1cc(C(F)F)c(N[C@H]2C[C@@H]3CN(CC4CCOCC4)C[C@@H]3C2)nn1` [compound 59, (3aR,5s,6aS)-N-(4-(difluoromethyl)-6-(5-fluoro-2-methylphenyl)pyridazin-3-yl)-2-((tetrahydro-2H-pyran-4-yl)methyl)octahydrocyclopenta[c]pyrrol-5-amine], the remaining activity at 30 µM worked out at 3% and the IC50 was 1.2 nM.
Taken in the same sequence, the figures for `[2H]C([2H])(C1CCOCC1)N1C[C@H]2C[C@H](Nc3nnc(-c4cc(F)ccc4C)cc3C3CC3)C[C@H]2C1` [compound 26, (3aR,5s,6aS)-N-(4-cyclopropyl-6-(5-fluoro-2-methylphenyl)pyridazin-3-yl)-2-((tetrahydro-2H-pyran-4-yl)methyl-d2)octahydrocyclopenta[c]pyrrol-5-amine] were 3% and 263 nM.
Taken in the same sequence, the figures for `[2H]C([2H])(C1CCOCC1)N1C[C@H]2C[C@H](Nc3nnc(-c4ccc5ccccc5c4)c(C)c3C)C[C@H]2C1` [compound 71, (3aR,5s,6aS)-N-(4,5-dimethyl-6-(naphthalen-2-yl)pyridazin-3-yl)-2-((tetrahydro-2H-pyran-4-yl)methyl-d2)octahydrocyclopenta[c]pyrrol-5-amine] were 2% and 12.7 nM.
On the same counts, the results for `[2H]C(C)(c1ccccn1)N1C[C@H]2C[C@H](Nc3cc(C(F)F)c(-c4cc(F)cc(F)c4F)nn3)C[C@H]2C1` (stereo partly drawn) [compound 51, (3aR,5s,6aS)-N-(5-(difluoromethyl)-6-(2,3,5-trifluorophenyl)pyridazin-3-yl)-2-(1-(pyridin-2-yl)ethyl-1-d)octahydrocyclopenta[c]pyrrol-5-amine] are 2% and 35 nM.
Take `Fc1cc(F)c(F)c(-c2nnc(N[C@H]3C[C@@H]4CN(CC5CCCOC5)C[C@@H]4C3)cc2C(F)F)c1` (single isomer, unassigned) [compound 48]: the remaining activity at 30 µM was determined as 2% and the IC50 worked out at 1.3 nM.
As for `Cc1c(-c2cc(F)ccc2F)nnc(N[C@H]2C[C@@H]3CN(CC4CCOCC4)C[C@@H]3C2)c1C#N` [compound 64, 6-(2,5-difluorophenyl)-5-methyl-3-(((3aR,5s,6aS)-2-((tetrahydro-2H-pyran-4-yl)methyl)octahydrocyclopenta[c]pyrrol-5-yl)amino)pyridazine-4-carbonitrile], the remaining activity at 30 µM was found to be 3% and the IC50 worked out at 7.69 nM.
For `[2H]C([2H])(C1CCOCC1)N1C[C@H]2C[C@H](Nc3nnc(-c4cc(F)ccc4F)cc3C3CCC3)C[C@H]2C1` [compound 30, (3aR,5s,6aS)-N-(4-cyclobutyl-6-(2,5-difluorophenyl)pyridazin-3-yl)-2-((tetrahydro-2H-pyran-4-yl)methyl-d2)octahydrocyclopenta[c]pyrrol-5-amine], the remaining activity at 30 µM came out at 2% and the IC50 was 116 nM.
Taken in the same sequence, the figures for `[2H]C([2H])(C1CCOCC1)N1C[C@H]2C[C@H](Nc3nnc(-c4cc(F)ccc4C)cc3C3CCC3)C[C@H]2C1` [compound 31, (3aR,5s,6aS)-N-(4-cyclobutyl-6-(5-fluoro-2-methylphenyl)pyridazin-3-yl)-2-((tetrahydro-2H-pyran-4-yl)methyl-d2)octahydrocyclopenta[c]pyrrol-5-amine] were 3% and 34.5 nM.
Taken in the same sequence, the figures for `CC1(CN2C[C@H]3C[C@H](Nc4nnc(-c5cc(F)ccc5F)cc4C(F)F)C[C@H]3C2)CCOCC1` [compound 79, (3aR,5s,6aS)-N-(4-(difluoromethyl)-6-(2,5-difluorophenyl)pyridazin-3-yl)-2-((4-methyltetrahydro-2H-pyran-4-yl)methyl)octahydrocyclopenta[c]pyrrol-5-amine] were 4% and 110 nM.
On the same counts, the results for `Fc1cc(F)c(F)c(-c2nnc(N[C@H]3C[C@@H]4CN(CCC5CCOCC5)C[C@@H]4C3)cc2C(F)F)c1` [compound 52, (3aR,5s,6aS)-N-(5-(difluoromethyl)-6-(2,3,5-trifluorophenyl)pyridazin-3-yl)-2-(2-(tetrahydro-2H-pyran-4-yl)ethyl)octahydrocyclopenta[c]pyrrol-5-amine] are 2% and 1.05 nM.
`Cc1c(-c2ccc3nn(C)cc3c2)nnc(N[C@H]2C[C@@H]3CN(CC4CCOCC4)C[C@@H]3C2)c1C#N` [compound 72, 5-methyl-6-(2-methyl-2H-indazol-5-yl)-3-(((3aR,5s,6aS)-2-((tetrahydro-2H-pyran-4-yl)methyl)octahydrocyclopenta[c]pyrrol-5-yl)amino)pyridazine-4-carbonitrile]: the remaining activity at 30 µM stood at 4% and the half-inhibitory concentration (IC50) stood at 0.91 nM.
On the same counts, the results for `OC1(CN2C[C@H]3C[C@H](Nc4cc(C(F)F)c(-c5cc(F)cc(F)c5F)nn4)C[C@H]3C2)CCOCC1` [compound 55, 4-(((3aR,5s,6aS)-5-((5-(difluoromethyl)-6-(2,3,5-trifluorophenyl)pyridazin-3-yl)amino)hexahydrocyclopenta[c]pyrrol-2(1H)-yl)methyl)tetrahydro-2H-pyran-4-ol] are 2% and 3.12 nM.
For the molecule `Cc1ccc(F)cc1-c1cc(S(C)(=O)=O)c(N[C@H]2C[C@@H]3CN(CC4CCOCC4)C[C@@H]3C2)nn1` [compound 9, (3aR,5s,6aS)-N-(6-(5-fluoro-2-methylphenyl)-4-(methylsulfonyl)pyridazin-3-yl)-2-((tetrahydro-2H-pyran-4-yl)methyl)octahydrocyclopenta[c]pyrrol-5-amine], the remaining activity at 30 µM amounted to 3% and the IC50 came to 18.4 nM.
As to `Cc1cc(N[C@H]2C[C@@H]3CN(CC4CCOCC4)C[C@@H]3C2)nnc1-c1cc(F)ccc1F` [compound 13, (3aR,5s,6aS)-N-(6-(2,5-difluorophenyl)-5-methylpyridazin-3-yl)-2-((tetrahydro-2H-pyran-4-yl)methyl)octahydrocyclopenta[c]pyrrol-5-amine], the remaining activity at 30 µM is 5% and the IC50 came out at 0.14 nM.
On the same counts, the results for `Cc1ccc(F)cc1-c1cc(-c2cc(F)ccc2C)c(N[C@H]2C[C@@H]3CN(CC4CCOCC4)C[C@@H]3C2)nn1` [compound 10, (3aR,5s,6aS)-N-(4,6-bis(5-fluoro-2-methylphenyl)pyridazin-3-yl)-2-((tetrahydro-2H-pyran-4-yl)methyl)octahydrocyclopenta[c]pyrrol-5-amine] are 3% and 384 nM.
For the molecule `[2H]C([2H])(C1CCOCC1)N1C[C@H]2C[C@H](Nc3nnc(-c4cc(F)cc(F)c4F)cc3C3CC3(F)F)C[C@H]2C1` (stereo partly drawn) [compound 33, (3aR,5s,6aS)-N-(4-(2,2-difluorocyclopropyl)-6-(2,3,5-trifluorophenyl)pyridazin-3-yl)-2-((tetrahydro-2H-pyran-4-yl)methyl-d2)octahydrocyclopenta[c]pyrrol-5-amine], the remaining activity at 30 µM stood at 3% and the IC50 is 6.4 nM.
Taken in the same sequence, the figures for `COc1ccc(F)cc1-c1cc(C(F)F)c(N[C@H]2C[C@@H]3CN(CC4CCOCC4)C[C@@H]3C2)nn1` [compound 85, (3aR,5s,6aS)-N-(4-(difluoromethyl)-6-(5-fluoro-2-methoxyphenyl)pyridazin-3-yl)-2-((tetrahydro-2H-pyran-4-yl)methyl)octahydrocyclopenta[c]pyrrol-5-amine] were 4% and 11 nM.
`Fc1cc(F)c(F)c(-c2nnc(N[C@H]3C[C@@H]4CN(CC5CCCCO5)C[C@@H]4C3)cc2C(F)F)c1` (single isomer, unassigned) [compound 47]: the IC50 is 2.02 nM. Where the note is “% ACh maximum at 30 μM”, the “Human M4 Emin” value was 2%.

The IC50 is the concentration at which inhibition is half-maximal.
